Experimental findings from EP2292225A1 (priority 1997, dated 1998) are described below.

Series [1] concerns left carotid artery. To be noted: rat, in vivo.
Series [2] deals with left carotid artery. The series can be described thus: Periadventitial delivery of crystals in pluronic gel after balloon trauma. It counts as in vivo, rats. The method, then:
To further evaluate the efficacy of crystalline taxol to inhibit neointimal formation in rats, four groups of 5-6 adult male rats underwent balloon trauma of the left carotid artery followed immediately by periadventitial delivery of 1, 0.1,0.01 or 0 mg of taxol crystals in 500 mg of a pluronic polymer in gel matrix. Fourteen days later, the rats were sacrificed, serum was collected and their carotid arteries were processed for histologic and morphometric analysis.

Series [3] concerns balloon traumatized rabbit carotid artery. In kind it is in vivo. The note with it: rabbit, in vivo.
The nature of series [4]: Human liver slices distribution and metabolism study (HPLC). To be noted: for % Activity in Media / % Activity in Tissue: 37°C. In kind it is in vitro ADME. The method, then:
(§1) ^3H-cytochalasin B (2 µg; 30 µCi/µg) was injected i.v. into BALB/c mice having urinary bladders that had been externally ligated. Animals were sacrificed at 15 minutes, 30 minutes, 2 hours or 16 hours post-injection. Organs were removed, blotted, weighed, air dried and assayed for radioactivity. Fifty - 73% of the total injected dose was accounted for in the tissues sampled (blood, heart, brain, muscle, bone, lung, liver, spleen, stomach, kidney, intestines, and urinary bladder). Clearance of ^3H-cytochalasin B from the blood was extremely rapid with less than 1% of the injected dose in circulation by 15 minutes. […] Cytochalasin B Metabolism. ^3H-cytochalasin B at a dose of 1.5 or 8 µg/ml was mixed with viable or non-viable human liver slices and media, and the amount of ^3H-cytochalasin B in media or tissue assessed by HPLC (Tables 8 and 9).

Series [5] in a line: MTT activity in human liver slices after 24 hour exposure. In kind it is cell-based. The note with it: for MTT Absorbance: 24 hours, mean +/- standard deviation of triplicate liver samples. The method, then: The cytotoxity of ^3H-cytochalasin B and its subsequent metabolites was also assessed by evaluating dose dependent changes in mitochondrial function by monitoring 3-[4, 5-dimethylthiazol-2yl]-2, 5-diphenyltetrazolium bromide (MTT) activity following a 24 hour exposure of human liver slices to the test agent (Table 10).

Series [6] can be described thus: Biodistribution of ^3H-cytochalasin B i.v. It counts as in vivo, BALB/c mice. The method, then: as §1
A short description of series [7]: Tissue distribution after intravascular delivery of crystals. It counts as in vivo, swine. To be noted: 10 µg/ml crystals in saline (saturated), three minutes under 1 atm. The method, then: The in vivo tissue distribution of cytochalasin B administered in crystalline form was evaluated in balloon traumatized swine femoral arteries after local delivery. A femoral artery of a Yorkshire crossbred swine was balloon traumatized by overinflation and rotation of a Vascu-Flo™ Silicone embolectomy catheter. Balloon trauma was immediately followed by intravascular delivery of 10 µg/ml ^3H-cytochalasin B crystals (Sigma Chemical Co., St. Louis, MO) in saline (saturated) for three minutes under 1 atm of pressure. Blood flow was resumed in the artery for five minutes prior to sacrifice of the animal.

Series [8] deals with Vascular smooth muscle (BO54) cells. In kind it is cell-based, baboon.
Where [9] appears, read: 1.5 µg/ml, Media/viable tissue, 1/4/24 Hours = r5/r6/r7.
Setting [10] is: 1.5 µg/ml, Media/viable tissue, 1/4/24 Hours = r2/r3/r4.
[11] abbreviates: 8 µg/ml, Media/boiled tissue, 1/4/24 Hours = r8/r9/r10.
Where [12] appears, read: 8 µg/ml, Media/viable tissue, 1/4/24 Hours = r2/r3/r4.
Where [13] appears, read: 8 µg/ml, Media/viable tissue, 1/4/24 Hours = r5/r6/r7.

Several values for one entry are separate records, joined by “and”; a condition that tells them apart may be missing. Equal entries are not always repeated. Entries after “also recorded” stand apart in the source; their conditions may differ.

As for `CC(=O)O[C@H]1C(=O)[C@@]2(C)[C@H]([C@H](OC(=O)c3ccccc3)[C@]3(O)C[C@H](OC(=O)[C@H](O)[C@@H](NC(=O)c4ccccc4)c4ccccc4)C(C)=C1C3(C)C)[C@]1(OC(C)=O)CO[C@@H]1C[C@@H]2O` [taxol], the “morphometry compared to untreated control animals” value in the series on left carotid artery [1] was “statistically significantly larger luminal areas and no neointimal proliferation”. In addition, in the series on left carotid artery [1], the “toxicity at the surgical site” value is recorded as “significant toxicity at the surgical site”. For the same compound, the figures for the “myonecrosis of the adjacent skeletal muscle (animals)” value with left carotid artery [2] (0.01 mg crystals in 500 mg pluronic gel), with left carotid artery [2] (0.1 mg crystals in 500 mg pluronic gel) and with left carotid artery [2] (1 mg crystals in 500 mg pluronic gel) were 0/4, 1/5 and 3/3, respectively. Moreover, the “neointimal area less than that of control animals” value in the series with left carotid artery [2] (1 mg crystals in 500 mg pluronic gel, too few animals for statistics) is on record as 38%. The “neointimal area and neointimal/medial ratio compared to control animals” value in the series on left carotid artery [2] (0.1 and 0.01 mg, did not reach statistical significance) was “a reduction in their neointimal area and neointimal/medial ratio was observed”. Besides, the “toxicity by dose group” value with left carotid artery [2] (crystals in pluronic gel) was “no (0.01 mg), minimal (0.1 mg) or limited (1.0 mg) toxicity”. For the same compound, in series [3], the intimal proliferation result is on record as “no intimal or adventitial proliferation; also recorded: no intimal proliferation; also recorded: only minimal intimal proliferation”.
For the compound ^3H-cytochalasin B, the “% Extractable Activity” value in series [4] (setting [9]) is 99.5% and 99.4% and 99.6%; in series [4] (setting [11]) it was 98.7% and 99.5% and 99.0%; in series [4] (setting [12]), 99.5% and 99.0% and 98.7%. Besides, the “%Non extractable Activity” value was 0.5% and 0.6% and 0.4% in series [4] (setting [9]); 1.3% and 0.5% and 1% in series [4] (setting [11]); 0.5% and 1% and 1.3% in series [4] (setting [12]). Also, the “% Activity in Media” value in series [4] (setting [10]) is 84% and 91%; in series [4] (setting [11]), 87% and 83%; in series [4] (setting [13]), 88% and 84% and 89%. In addition, the “% Activity in Tissue” value in series [4] (setting [10]) was 16% and 9%; in series [4] (setting [11]), 13% and 17%; in series [4] (setting [13]) it was 12% and 16% and 11%. For the same compound, the “% Metabolized of Extractable Activity” value in series [4] (8 µg/ml, Media Only, 1/4/24 Hours = r11/r12/r13) was 5% and 4%; in series [4] (setting [11]) it was 5%. For the same compound, the metabolized in series [4] (within 24 hours) turned out to be 98%. The “MTT Absorbance” value is given as 0.844 +/- 0.014 in series [5] (0.1 µg/ml), 0.841 +/- 0.081 in series [5] (1.5 µg/ml) and 0.850 +/- 0.082 in series [5] (8.0 µg/ml). Besides, the “cytotoxicity of ^3H-cytochalasin B or its subsequent metabolites” value in series [5] (24 hour exposure) is reported as “not cytotoxic”. Further, the “^3H activity in all tissues” value in series [6] (by 16 hours) is given as “below 1.5 % injected dose per gram of tissue”. Besides, the “retention of ^3H activity” value in series [6] (mouse, in vivo) is “Only liver, skeletal muscle and intestines showed significant retention”. This compound had an amount delivered in series [7] of 31 µg. Further, the tissue distribution result in series [7] is recorded as “localized predominantly to the adventitia”.
With `CN[C@@H]1C[C@H]2O[C@@](C)([C@@H]1OC)n1c3ccccc3c3c4c(c5c6ccccc6n2c5c31)C(=O)NC4` [staurosporin], in series [8], the “therapeutic range (area under the curve of ^3H-leucine assay greater than ^3H-thymidine assay)” value (from here on “therapeutic range”) was “available therapeutic range”.
As for `CC(=O)O[C@@H]1/C=C\[C@@](C)(O)C(=O)[C@@H](C)C/C=C\[C@H]2[C@H](O)C(C)=C(C)[C@H]3C(Cc4ccccc4)NC(=O)[C@]132` (stereo partly drawn) [cytochalasin C], in series [8], the “minimum effective dose (MED), DNA synthesis assay” value stood at 0.01 µg/mL.
Consider `Cc1ccc(C(=O)Nc2ccc(S(=O)(=O)O)c3cc(S(=O)(=O)O)cc(S(=O)(=O)O)c23)cc1NC(=O)c1cccc(NC(=O)Nc2cccc(C(=O)Nc3cc(C(=O)Nc4ccc(S(=O)(=O)O)c5cc(S(=O)(=O)O)cc(S(=O)(=O)O)c45)ccc3C)c2)c1` [suramin], for which the “therapeutic range” value in series [8] is “available therapeutic range”.
For `O=[N+]([O-])OCC(CO[N+](=O)[O-])O[N+](=O)[O-]` [nitroglycerin], the “therapeutic range” value in series [8] was “available therapeutic range”.
